# From ChEMBL document CHEMBL5356995, “Aurones and derivatives as promising New Delhi metallo-β-lactamase (NDM-1) inhibitors” (Bioorg Med Chem, 2024)
# pKi: −log10 of the molar value.
# Assays:
# [1] = target: T1, Metallo-beta-lactamase type 2 (Bacteria, UniProt C7C422); experiment: Inhibition of bacterial NDM-1
# [2] = target: T1, Metallo-beta-lactamase type 2; experiment: Competitive inhibition of NDM-1 using imipenem as substrate by spectrophotometric analysis
# Bacteria [3] = experiment: Inhibition of bacterial VIM-2 assessed as substrate hydrolysis at 50 uM using imipenem as substrate by spectrophotometric analysis relative to control
# Escherichia coli [4] = experiment: Potentiation of meropenem induced antibacterial activity against blaNDM-1 producing Escherichia coli SI-004M assessed as reduction in meropenem MIC at 32 ug/ml (reference value: 64 ug/ml); assay type: functional; conditions: dose 32 µg/ml
# Bacteria [5] = experiment: Inhibition of bacterial IMP-1 assessed as substrate hydrolysis at 50 uM using imipenem as substrate by spectrophotometric analysis relative to control
# [6] = target: Metallo-beta-lactamase type 2 (Bacteria) (UniProt C7C422); experiment: Inhibition of bacterial NDM-1 assessed as substrate hydrolysis at 50 uM using imipenem as substrate by spectrophotometric analysis relative to control
# Sequence of Metallo-beta-lactamase type 2 (Bacteria) (C7C422 whole entry): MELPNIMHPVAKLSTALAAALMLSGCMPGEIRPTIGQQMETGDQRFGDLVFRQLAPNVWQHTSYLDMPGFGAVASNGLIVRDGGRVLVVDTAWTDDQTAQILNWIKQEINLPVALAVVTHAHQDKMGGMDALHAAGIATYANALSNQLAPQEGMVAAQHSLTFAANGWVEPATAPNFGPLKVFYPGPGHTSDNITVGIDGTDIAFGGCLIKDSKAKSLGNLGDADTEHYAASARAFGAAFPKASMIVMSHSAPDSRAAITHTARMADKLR
# Klebsiella pneumoniae = experiment: Potentiation of meropenem induced antibacterial activity against blaNDM-1 producing Klebsiella pneumoniae SI-518 assessed as reduction in meropenem MIC at 32 ug/ml (reference value: 128 ug/ml); assay type: functional; conditions: dose 32 µg/ml
# Escherichia coli [7] = experiment: Potentiation of meropenem induced antibacterial activity against blaNDM-4 producing Escherichia coli SI-G001 assessed as reduction in meropenem MIC at 32 ug/ml (reference value: 128 ug/ml); assay type: functional; conditions: dose 32 µg/ml
# Bacteria [8] = experiment: Inhibition of bacterial IMP-1 assessed as substrate hydrolysis at 100 uM using imipenem as substrate by spectrophotometric analysis relative to control
# Bacteria [9] = experiment: Inhibition of bacterial VIM-2 assessed as substrate hydrolysis at 100 uM using imipenem as substrate by spectrophotometric analysis relative to control
# [10] = target: Metallo-beta-lactamase type 2 (Bacteria) (UniProt C7C422); experiment: Inhibition of bacterial NDM-1 assessed as substrate hydrolysis at 100 uM using imipenem as substrate by spectrophotometric analysis relative to control
# T1 sequence (C7C422 whole entry): as above
inhibition (Bacteria [3]) [%],inhibition (Bacteria [5]) [%],inhibition [6] [%],SMILES,other results
,,,N[C@@H](CN[C@@H](CN[C@@H](CC(O)O)C(=O)O)C(=O)O)C(=O)O,pKi [1]: 7.96
,,,O=C1/C(=C/c2ccc(O)c(O)c2)Cc2cc(O)cc(O)c21,pKi [1]: 5.39
< 10,41,68.7,O=C1/C(=C/c2cn(CCCc3ccccc3)c3ccccc23)Oc2cc(O)cc(O)c21,pKi [2]: 4.77; MIC (Escherichia coli [4]): 32 µg/mL; MIC (Klebsiella pneumoniae): 32 µg/mL; MIC (Escherichia coli [7]): 64 µg/mL
< 10,44,72,O=C1/C(=C/c2cn(CC3CCCCC3)c3ccccc23)Oc2cc(O)cc(O)c21,pKi [2]: 5.60; MIC (Escherichia coli [4]): 64 µg/mL; MIC (Klebsiella pneumoniae): 16 µg/mL; MIC (Escherichia coli [7]): 64 µg/mL
< 10,31,78,O=C1/C(=C/c2cn(Cc3cccc(O)c3)c3ccccc23)Oc2cc(O)cc(O)c21,pKi [2]: 4.80; MIC (Escherichia coli [4]): 64 µg/mL; MIC (Klebsiella pneumoniae): 64 µg/mL; MIC (Escherichia coli [7]): 128 µg/mL
< 10,43,69,O=C1/C(=C/c2cn(Cc3cccc(Br)c3)c3ccccc23)Oc2cc(O)cc(O)c21,pKi [2]: 5.26; MIC (Escherichia coli [4]): 32 µg/mL; MIC (Klebsiella pneumoniae): 32 µg/mL; MIC (Escherichia coli [7]): 64 µg/mL
17,20,74,O=C1/C(=C/c2ccc(N3CCCCC3)cc2)Oc2cc(O)cc(O)c21,pKi [2]: 5.32; MIC (Escherichia coli [4]): 64 µg/mL; MIC (Klebsiella pneumoniae): 64 µg/mL; MIC (Escherichia coli [7]): 128 µg/mL
,,,O=C(O)[C@H](CCCn1c(-c2ccccc2)n[nH]c1=S)N(Cc1c[nH]cn1)Cc1c[nH]cn1,inhibition (Bacteria [8]): 40%; MIC (Escherichia coli [4]): ≤ 0.5 µg/mL; inhibition (Bacteria [9]): 96%; MIC (Klebsiella pneumoniae): ≤ 0.5 µg/mL; MIC (Escherichia coli [7]): ≤ 0.5 µg/mL; inhibition [10]: 97%
< 10,19,< 10,CN1CCN(c2ccc(/C=C3\Oc4cc(O)ccc4C3=O)cc2)CC1,
< 10,< 10,< 10,COc1cc(O)ccc1/C=C1\Oc2ccccc2C1=O,
11,43,54,Cc1cccc(Cn2cc(/C=C3\Oc4cc(O)cc(O)c4C3=O)c3ccccc32)c1,
< 10,43.6,52,COc1ccc(/C=C2\Oc3cc(O)cc(O)c3C2=O)c(OC)c1,
< 10,< 10,< 10,O=C1/C(=C/c2c(O)cc(O)cc2O)Oc2cc(O)ccc21,
< 10,28,46,Cn1cc(/C=C2\Oc3cc(O)cc(O)c3C2=O)c2ccccc21,
< 10,< 10,< 10,COc1cc(/C=C2\Oc3ccccc3C2=O)ccc1O,
< 10,47.1,18,CC(C)CCn1cc(/C=C2\Oc3cc(O)cc(O)c3C2=O)c2ccccc21,
13,15,< 10,O=C1/C(=C/c2ccc(O)cc2O)Oc2c1ccc(O)c2I,
< 10,< 10,< 10,CCCCc1ccc(/C=C2\Oc3c(ccc(O)c3O)C2=O)cc1,
< 10,27,55,CN(C)c1ccc(/C=C2\Oc3cc(O)cc(O)c3C2=O)c(O)c1,

inhibition (Bacteria [3]) [%],inhibition (Bacteria [5]) [%],inhibition [6] [%],SMILES,other results
,,,O=C(O)CN1CCN(CC(=O)O)CCN(CC(=O)O)CC1,pKi [1]: 5.29
< 10,14,< 10,O=C1/C(=C/c2ccccc2O)Oc2cc(O)cc(O)c21,
< 10,17,< 10,O=C1/C(=C/c2ccc(C(F)(F)F)cc2)Oc2c1ccc(O)c2O,
< 10,13,< 10,COc1cc(O)ccc1/C=C1\Oc2cc(O)ccc2C1=O,
< 10,19,50,O=C1/C(=C/c2ccc3ccccc3c2)Oc2c1ccc(O)c2O,
< 10,49,84.5,COc1ccc(/C=C2\Oc3c(ccc(O)c3O)C2=O)c(O)c1,pKi [2]: 5.77; MIC (Escherichia coli [4]): 32 µg/mL; MIC (Klebsiella pneumoniae): 32 µg/mL; MIC (Escherichia coli [7]): 128 µg/mL
< 10,< 10,< 10,O=C1/C(=C/c2c(O)cc(O)cc2O)Oc2c(O)cccc21,
< 10,< 10,< 10,COc1ccc(/C=C2\Oc3ccccc3C2=O)c(OC)c1OC,
10.3,28,30,COc1ccc(/C=C2\Oc3c(ccc(O)c3O)C2=O)c(OC)c1,
< 10,22,44,O=C1/C(=C/c2cn(Cc3ccc(Br)cc3)c3ccccc23)Oc2cc(O)cc(O)c21,
< 10,20,38,COc1ccc(/C=C2\Oc3cc(O)cc(O)c3C2=O)cc1,
< 10,< 10,< 10,O=C1/C(=C/c2ccc(F)cc2)Oc2c(O)cccc21,
< 10,30,< 10,CCCCn1cc(/C=C2\Oc3cc(O)cc(O)c3C2=O)c2cc(O)ccc21,
< 10,12,< 10,Cc1ccc(O)c(/C=C2\Oc3cc(O)cc(O)c3C2=O)c1,
< 10,23,51,O=C1/C(=C/c2ccc(-n3ccnc3)cc2)Oc2cc(O)cc(O)c21,
< 10,< 10,12,O=C1/C(=C/c2ccc(O)c(O)c2)Oc2cccc(O)c21,
< 10,< 10,< 10,O=C1/C(=C/c2ccc(Cl)cc2)Oc2c(O)cccc21,
< 10,< 10,< 10,O=C1/C(=C/c2ccc(O)cc2O)Oc2c(O)cccc21,
